From patent US20180343865A1, “HERBICIDAL COMPOSITIONS COMPRISING ISOXAZOLO[5,4-B]PYRIDINES” (BASF SE, priority 2015, published 2018)

Assays:
Format in all cases: in vivo
[1] = system: Matricaria chamomilla; experiment: Greenhouse postemergence herbicidal activity on MATCH, 20 DAT; conditions: Matricaria chamomilla, post-emergence, 62.5 gai/ha, read-out: % activity, solo application dicuran
Method: (§1) For the post emergence treatment, the plants were first grown to the 2 leaf station (GS 12) and applied at GS 12-19 depending on the species. The herbicidal compositions were suspended or emulsified in water as distribution medium and sprayed using finely distributing nozzles.
(§2) The plants have been cultivated due to their individual requirements at 10 to 25° C. and. 20 to 35° C. The plants were irrigated due to their necessity.
(§3) The respective stated components A), were formulated as a 5% by weight strength emulsion concentrate containing wettol EM 31 20% and Cyclohexanone 80%. The respective stated components B), were formulated as either emulsifiable concentrates (EC), soluble liquids (SL), suspension concentrates (SC) or soluble granules (SG) as indicated in the table below. Component A, component B and the solvent system are introduced into the spray liquor used for applying the active compound. In the examples, the solvent used was water containing 1% Dash (Agnique ME 181 37.5%, Lutensit A-EP 22.5%, and Oleic Acid 5%) and 2% ammonium suflate.
(§4) In the following experiments, the herbicidal activity for the individual herbicide compounds (solo and mixture applications), the herbicidal succession was assessed 20 days after treatment (DAT). The evaluation for the damage on undesired weeds caused by the chemical compositions was carried out using a scale from 0 to 100%, compared to the untreated control plants. Here, 0 means no damage and 100 means complete destruction of the plants. The plants used in the greenhouse experiments belonged to the following species:
(§5) The value E, which corresponds to the effect (in %) that is to be expected if the activity of the individual compounds is additive, was calculated using the method of S. R. Colby (1967) “Calculating synergistic and antagonistic responses of herbicide combinations”, Weeds 15, p. 22 ff. Colby calculation for 2 way mixtures:
(§6) where: • X=effect in percent using herbicide A at an application rate a; • Y=effect in percent using herbicide B at an application rate b; • E=expected effect (in %) of A+B at application rates a+b
(§7) If the value observed in this manner is higher than the value E calculated according to Colby, a synergistic effect is present.

[2] = system: Conyza canadiensis; experiment: Greenhouse postemergence herbicidal activity on ERICA, 20 DAT; conditions: Conyza, post-emergence; ERICA, 62.5 gai/ha, postemergence; read-out: % activity, solo application dicuran
Method: as §1, §2, §3, §4, §5, §6, §7

[3] = system: Galium aparine; experiment: Greenhouse postemergence herbicidal activity on GALAP, 20 DAT; conditions: Galium aparine, post-emergence, 62.5 gai/ha, read-out: % activity, solo application dicuran
Method: as §1, §2, §3, §4, §5, §6, §7

[4] = system: Amaranthus retroflexus; experiment: Greenhouse postemergence herbicidal activity on AMARE, 20 DAT; conditions: Amaranthus retroflexus, post-emergence, AMARE, 62.5 gai/ha, postemergence; read-out: % activity, solo application dicuran
Method: as §1, §2, §3, §4, §5, §6, §7

[5] = system: Chenopodium album; experiment: Greenhouse postemergence herbicidal activity on CHEAL, 20 DAT; conditions: Chenopodium album, post-emergence, 62.5 gai/ha, read-out: % activity, solo application dicuran
Method: as §1, §2, §3, §4, §5, §6, §7

[6] = system: Ipomoea hederacea; experiment: Greenhouse postemergence herbicidal activity on IPOHE, 20 DAT; conditions: Ipomoea hederacea, post-emergence, 62.5 gai/ha, read-out: % activity, solo application dicuran
Method: as §1, §2, §3, §4, §5, §6, §7

[7] = system: AVEFA; experiment: Greenhouse postemergence herbicidal activity on AVEFA, 20 DAT; conditions: Avena fatua, post-emergence, 62.5 gai/ha, read-out: % activity, solo application dicuran
[8] = system: Setaria viridis; experiment: Greenhouse postemergence herbicidal activity on SETVI, 20 DAT; conditions: post-emergence, 62.5 gai/ha, read-out: % activity, solo application dicuran
Method: as §1, §2
The respective stated components A), were formulated as a 5% by weight strength emulsion concentrate containing wettol EM 31 20% and Cyclohexanone 80%. The respective stated components B), were formulated as either emulsifiable concentrates (EC), soluble liquids (SL), suspension concentrates (SC) or soluble granules (SG) as indicated in the table below. […]
In the following experiments, the herbicidal activity for the individual herbicide compounds (solo and mixture applications), the herbicidal succession was assessed 20 days after treatment (DAT). […]
The value E, which corresponds to the effect (in %) that is to be expected if the activity of the individual compounds is additive, was calculated using the method of S. R. Colby (1967) “Calculating synergistic and antagonistic responses of herbicide combinations”, Weeds 15, p. […]
as §7

[9] = system: DIGSA; experiment: Greenhouse postemergence herbicidal activity on DIGSA, 20 DAT; conditions: Digitaria sanguinalis, post-emergence, 62.5 gai/ha, read-out: % activity, solo application dicuran
[10] = system: ALOMY; experiment: Greenhouse postemergence herbicidal activity on ALOMY, 20 DAT; conditions: Alopecurus myosuroides, post-emergence, 62.5 gai/ha, read-out: % activity, solo application dicuran
[11] = system: BROST; experiment: Greenhouse postemergence herbicidal activity on BROST, 20 DAT; conditions: post-emergence, 62.5 gai/ha, read-out: % activity, solo application dicuran
[12] = system: APESV; experiment: Greenhouse postemergence herbicidal activity on APESV, 20 DAT; conditions: post-emergence, 62.5 gai/ha, read-out: % activity, solo application dicuran
[13] = system: Polygonum convolvulus; experiment: Greenhouse postemergence herbicidal activity on POLCO, 20 DAT; conditions: Fallopia convolvulus, post-emergence, POLCO, 62.5 gai/ha, postemergence; read-out: % activity, solo application dicuran
Method: as §1, §2, §3, §4, §5, §6, §7

[14] = system: Abutilon theoprasti; experiment: Greenhouse postemergence herbicidal activity on ABUTH, 20 DAT; conditions: Abutilon, post-emergence, 62.5 gai/ha, read-out: % activity, solo application dicuran
Method: as §1, §2, §3, §4, §5, §6, §7

[15] = system: CONAR; experiment: Greenhouse postemergence herbicidal activity on CONAR, 20 DAT; conditions: post-emergence, 62.5 gai/ha, read-out: % activity, solo application dicuran
[16] = system: Stellaria media; experiment: Greenhouse postemergence herbicidal activity on STEME, 20 DAT; conditions: Stellaria media, post-emergence, STEME, 62.5 gai/ha, postemergence; read-out: % activity, solo application dicuran
Method: as §1, §2, §3, §4, §5, §6, §7

Molecule Cc1ccc(NC(=O)N(C)C)cc1Cl [dicuran, Chlorotoluron] has an inhibition at 62.5 g/ha [1] of 85%, an inhibition at 62.5 g/ha [2] of 75% and an inhibition at 62.5 g/ha [3] of 35%. The inhibition at 62.5 g/ha [4] was 60%, the inhibition at 62.5 g/ha [5] was 90% and the inhibition at 62.5 g/ha [6] was 85%. For the same molecule, the inhibition at 62.5 g/ha [7] was 0%, the inhibition at 62.5 g/ha [8] was 0% and the inhibition at 62.5 g/ha [9] was 0%. For the same molecule, the inhibition at 62.5 g/ha [10] was 0%, the inhibition at 62.5 g/ha [11] was 0% and the inhibition at 62.5 g/ha [12] was 0%. The inhibition at 62.5 g/ha [13] was 80%, the inhibition at 62.5 g/ha [14] was 50% and the inhibition at 62.5 g/ha [15] was 0%. It also gave an inhibition at 62.5 g/ha [16] of 85%.
